We go through 21 molecules from patent US20260207565A1, “COMPOUNDS THAT INHIBIT PKMYT1” (Exelixis, Inc., priority 2022, published 2026).

One experiment concerns the target T1, PKMYT1 (Homo sapiens, UniProt Q99640).
T1 construct: PKMYT1 (93 kD, full length, N-terminal GST tag from Signal Chem); GST (N); purchased Signal Chem
T1 sequence (Q99640 1-499): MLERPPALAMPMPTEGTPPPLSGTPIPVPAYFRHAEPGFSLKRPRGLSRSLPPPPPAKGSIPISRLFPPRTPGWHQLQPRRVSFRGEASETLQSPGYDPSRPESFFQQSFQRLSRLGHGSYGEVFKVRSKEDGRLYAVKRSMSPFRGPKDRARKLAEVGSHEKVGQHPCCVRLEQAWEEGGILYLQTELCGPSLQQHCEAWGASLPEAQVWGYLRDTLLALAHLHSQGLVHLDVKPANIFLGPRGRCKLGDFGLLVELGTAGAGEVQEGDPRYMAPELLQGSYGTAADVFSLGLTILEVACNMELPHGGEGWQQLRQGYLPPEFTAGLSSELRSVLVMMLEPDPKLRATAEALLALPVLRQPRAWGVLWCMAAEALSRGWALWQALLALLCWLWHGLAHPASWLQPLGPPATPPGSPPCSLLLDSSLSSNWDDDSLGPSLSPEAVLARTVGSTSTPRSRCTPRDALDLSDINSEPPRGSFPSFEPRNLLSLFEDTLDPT
Description: ADP-Glo PKMYT1 ATP-depletion assay. As to conditions: 50 nM PKMYT1, 13.3 nM CDK1, 88 μM ATP, 120 minutes at RT, read-out: Biochemical IC50. The method, then:
(§1) Biochemical IC50 values were determined via ADP-Glo™ assay. Cellular IC50 values were determined via AlphaLISA assay.
ADP-Glo™ PKMYT1 ATP-depletion assay. The activity of PKMYT1 is measured using a luciferase-luciferin based ATP detection reaction to quantify ATP depletion resulting from kinase-catalyzed phosphoryl transfer to CDK1 or autophosphorylation of PKMYT1. The ADP generated as a byproduct of the reaction is converted to ATP and used to drive a luciferase reaction. Test compounds were dissolved in DMSO and dispensed into Corning 3824 384-well plates prior to the experiment such that the final DMSO concentration was <10%. To the compounds was added 3 μL of PKMYT1 (93 kD, full length, N-terminal GST tag from Signal Chem). The reaction was started by the addition of 2 μL of CDK1 (58 kDa, full length, N-terminal GST tag from Signal Chem) and ATP in assay buffer (50 mM Hepes, 40 mM NaCl, 10 mM MgCl2, 1 mM DTT, 0.1 mg/mL BSA, 2.5 mM MnCl2). Final assay concentrations were 50 nM PKMYT1, 13.3 nM CDK1, and 88 μM ATP. Plates were centrifuged for 1 minute at 1000 RPM and incubated at RT for 120 minutes. After the incubation period, ADP-Glo™ reagent was added and the plates were incubated for another 40 minutes before finally adding the kinase detection reagent, 30 minutes after the addition, plates were placed on a PHERAstar® plate reader and read using the Luminescence Protocol, integration time at 0.5 seconds.
For orientation: ADP-Glo turns the ADP formed in a reaction into a luminescent signal.

The subject of experiment [1] is phosphorylation of CDK1 at Thr14 in HCC1806 cells. Description: Cell lysate AlphaLISA assay measuring inhibition of phosphorylation of CDK1 Thr14. The settings on record: Homo sapiens, HCC1806, 4 h, compounds incubated 4 hours, AlphaLISA SureFire Ultra CDK1 Thr14, read-out: Cellular IC50. It counts as cell-based. The method, then:
as §1
Cell lysate AlphaLISA® assay measuring inhibition of phosphorvlation of CDK1 Thr14. Inhibition of phosphorylation of CDK1 at Thr14 was determined using AlphaLISAn SureFire® Ultra™ Kit from Perkin Elmer (ALSU-PCDK1-A10K). HCC1806 cells were seeded at 2K cells per well (50 μl/well) in 384-well plates (Corning 3570) and stored overnight at 37° C. and 5% CO2. The following day, the compounds dissolved in DMSO were introduced to the cells and incubated for 4 hours at 37° C. and 5% CO2. The cells were then washed with PBS using Blue® Washer and 10 μl of lysis buffer containing protease inhibitor was added. The plate was placed on an orbital shaker (at 4° C.) for 30 minutes and stored overnight at −80° C. for complete lysing. The next day, the plates were thawed at room temperature for at least 30 min. Reagents were prepared in a dimmed light setting (<100 lumens). The assay was run by first adding 5 μl of the acceptor mix (reaction buffer 1: reaction buffer 2:activation buffer:acceptor beads 47:47:4:2), covering the plate with foil, shaking for 2 minutes, and incubating at RT for 60 minutes. The donor mix (dilution buffer:donor beads 47:3) was then added at 5 μl per well, placed on the shaker for 2 minutes and incubated at RT for 60 minutes before reading the plates on a PHERAstar® plate reader. The results were normalized to DMSO (0% Inhibition) and 3 μM of reference compound.
(In Alpha technology, singlet oxygen from a donor bead excites a nearby acceptor bead.)

The structures appear in SMILES notation.

As a reminder, the IC50 is the concentration that gives 50% inhibition. Turning to `Cc1ccc(O)c(C)c1-c1cc(C(N)=O)nc2c1cnn2C` [Compound 17, 4-(3-hydroxy-2,6-dimethylphenyl)-1-methyl-pyrazolo[3,4-b]pyridine-6-carboxamide], the IC50 at PKMYT1 was 1 to 5 µM; in experiment [1], no less than 5 µM.
Consider `Cc1ccc(O)c(C)c1-c1cc(C(N)=O)nc2c1c(C#N)cn2CC(F)(F)F` (racemic) [Compound 23, 3-cyano-4-(3-hydroxy-2,6-dimethylphenyl)-1-(2,2,2-trifluoroethyl)pyrrolo[2,3-b]pyridine-6-carboxamide], for which the IC50 (at PKMYT1; in experiment [1]) was less than 0.05 µM each time.
Take `CCn1cc(-c2cn[nH]c2)c2c(-c3c(C)ccc(O)c3C)cc(C(N)=O)nc21` (single isomer, unassigned) [Compound 69, (P)-1-Ethyl-4-(3-hydroxy-2,6-dimethylphenyl)-3-(1H-pyrazol-4-yl)-1H-pyrrolo[2,3-b]pyridine-6-carboxamide]: the IC50 (at PKMYT1; in experiment [1]) was less than 0.05 µM each time.
Take `Cc1ccc(O)c(C)c1-c1cc(C(N)=O)nc2c1c(Cl)cn2C` (racemic) [Compound 30, 3-chloro-4-(3-hydroxy-2,6-dimethylphenyl)-1-methyl-1H-pyrrolo[2,3-b]pyridine-6-carboxamide]: the IC50 on PKMYT1 lay in the range of 0.05 to 0.5 µM; in experiment [1] it was 1 to 5 µM.
Consider `Cc1ccc(O)c(C)c1-c1cc(C(N)=O)cc2cn[nH]c12` [Compound 37, 7-(3-hydroxy-2,6-dimethylphenyl)-1H-indazole-5-carboxamide], for which the IC50 (at PKMYT1; in experiment [1]) was 1 to 5 µM throughout.
Regarding `Cc1ccc(O)c(C)c1-c1c(N)c(C(N)=O)cc2c1nc(C(F)F)n2C(F)F` (atropisomer, axis not shown; (P)) [Compound 94, (P)-6-amino-2,3-bis(difluoromethyl)-7-(3-hydroxy-2,6-dimethyl-phenyl)benzimidazole-5-carboxamide], the IC50 (on PKMYT1; in experiment [1]) was less than 0.05 µM each time.
`Cc1c(O)cccc1-c1c(N)c(C(N)=O)nc2c1c(Br)nn2C` [Compound 57, 5-Amino-3-bromo-4-(3-hydroxy-2-methylphenyl)-1-methyl-1H-pyrazolo[3,4-b]pyridine-6-carboxamide]: the IC50 (on PKMYT1; in experiment [1]) was 0.05 to 0.5 µM throughout.
Consider `Cc1ccc(O)c(C)c1-c1c(N)c(C(N)=O)cc2c1nc(C(F)F)n2-c1ncccc1F` (atropisomer, axis not shown; (P)) [Compound 95, (P)-6-amino-2-(difluoromethyl)-3-(3-fluoro-2-pyridyl)-7-(3-hydroxy-2,6-dimethyl-phenyl)benzimidazole-5-carboxamide], for which the IC50 (at PKMYT1; in experiment [1]) was less than 0.05 µM in each case.
For the molecule `Cc1c(O)cccc1-c1c(N)c(C(N)=O)nc2c1c(C#N)cn2C` (single isomer, unassigned) [Compound 5, (M)-5-Amino-3-cyano-4-(3-hydroxy-2-methylphenyl)-1-methyl-1H-pyrrolo[2,3-b]pyridine-6-carboxamide], the IC50 (on PKMYT1; in experiment [1]) was less than 0.05 µM throughout.
For the molecule `CCn1cc(C#N)c2c(-c3ccc(C)c(O)c3C)c(N)c(C(N)=O)nc21` (single isomer, unassigned) [Compound 82, (M)-5-amino-3-cyano-1-ethyl-4-(3-hydroxy-2,4-dimethylphenyl)-1H-pyrrolo[2,3-b]pyridine-6-carboxamide], the IC50 (on PKMYT1; in experiment [1]) was less than 0.05 µM in each case.
`Cn1cc(C#N)c2c(-c3cncc(Cl)c3Cl)c(N)c(C(N)=O)nc21` [Compound 66, 5-Amino-3-cyano-4-(4,5-dichloropyridin-3-yl)-1-methyl-1H-pyrrolo[2,3-b]pyridine-6-carboxamide]: the results for the IC50 (on PKMYT1; in experiment [1]) were less than 0.05 µM and 0.05 to 0.5 µM, respectively.
The like results for `Cc1ccc(O)c(C)c1-c1cc(C(N)=O)cc2cnn(C)c12` [Compound 40, 7-(3-hydroxy-2,6-dimethylphenyl)-1-methyl-indazole-5-carboxamide] were, in that order, no less than 5 µM and no less than 5 µM.
Turning to `CCn1cnc2c(-c3c(C)ccc(O)c3C)c(N)c(C(N)=O)nc21` (atropisomer, axis not shown; (P)) [Compound 81, (P)-6-amino-3-ethyl-7-(3-hydroxy-2,6-dimethylphenyl)-3H-imidazo[4,5-b]pyridine-5-carboxamide], the half-maximal inhibitory concentration (IC50) (on PKMYT1; in experiment [1]) was less than 0.05 µM throughout.
As for `Cc1c(O)cccc1-c1c(N)c(C(N)=O)nc2c1c(C#N)cn2-c1ncccc1F` (atropisomer, axis not shown; (M)) [Compound 78, (M)-5-Amino-3-cyano-1-(3-fluoropyridin-2-yl)-4-(3-hydroxy-2-methylphenyl)-1H-pyrrolo[2,3-b]pyridine-6-carboxamide], the IC50 (at PKMYT1; in experiment [1]) was less than 0.05 µM each time.
As to `Cc1ccc(O)c(C)c1-c1c(N)c(C(N)=O)nc2c1ncn2C` [Compound 1, 6-Amino-7-(3-hydroxy-2,6-dimethylphenyl)-3-methyl-3H-imidazo[4,5-b]pyridine-5-carboxamide], the IC50 is less than 0.05 µM on PKMYT1 and 0.05 to 0.5 µM in experiment [1].
Turning to `Cc1c(O)cccc1-c1c(N)c(C(N)=O)nc2c1c(C#N)c(C)n2CC(F)(F)F` [Compound 14], the IC50 (on PKMYT1; in experiment [1]) was less than 0.05 µM throughout.
On to `Cc1c(O)cccc1-c1c(N)c(C(N)=O)nc2c1c(-c1c[nH]nn1)cn2C` (atropisomer, axis not shown; (M)) [Compound 90, (M)-5-amino-4-(3-hydroxy-2-methylphenyl)-1-methyl-3-(1H-1,2,3-triazol-4-yl)-1H-pyrrolo[2,3-b]pyridine-6-carboxamide], for which the IC50 (at PKMYT1; in experiment [1]) was less than 0.05 µM in each case.
In the case of `Cc1ccc(O)c(C)c1-c1c(N)c(C(N)=O)nc2c1nc(C)n2C(C)C` (single isomer, unassigned) [Compound 84, (P)-6-amino-7-(3-hydroxy-2,6-dimethylphenyl)-3-isopropyl-2-methyl-3H-imidazo[4,5-b]pyridine-5-carboxamide], the IC50 (at PKMYT1; in experiment [1]) was less than 0.05 µM in each case.
With `Cc1ccc(O)c(C)c1-c1c(N)c(C(N)=O)cc2c1ncn2C(F)F` (atropisomer, axis not shown; (P)) [Compound 85, (P)-5-amino-1-(difluoromethyl)-4-(3-hydroxy-2,6-dimethylphenyl)-1H-benzo[d]imidazole-6-carboxamide], the IC50 (on PKMYT1; in experiment [1]) was less than 0.05 µM in each case.
As to `Cc1ccc(O)c(C)c1-c1c(N)c(C(N)=O)nc2c1ncn2C1CC(F)(F)C1` (atropisomer, axis not shown; (P)) [Compound 75, (P)-6-amino-3-(3,3-difluorocyclobutyl)-7-(3-hydroxy-2,6-dimethylphenyl)-3H-imidazo[4,5-b]pyridine-5-carboxamide], the IC50 (at PKMYT1; in experiment [1]) was less than 0.05 µM throughout.
Consider `CCn1cc(-c2ncon2)c2c(-c3c(C)ccc(O)c3C)cc(C(N)=O)nc21` (atropisomer, axis not shown; (P)) [Compound 71, (P)-1-Ethyl-4-(3-hydroxy-2,6-dimethylphenyl)-3-(1,2,4-oxadiazol-3-yl)-1H-pyrrolo[2,3-b]pyridine-6-carboxamide], for which the IC50 (at PKMYT1; in experiment [1]) was less than 0.05 µM each time.
